From US9173938B2, “Combination of a purine-based CDK inhibitor with a tyrosine kinase inhibitor and use thereof in the treatment of proliferative disorders” (Cyclacel Limited, priority 2007, dated 2015)

Columns and labels:
H460 cells = assay: Cell growth (alamar blue); assay type: cell-based; conditions: Homo sapiens, NCI-H460
cleaved PARP = assay: Western blot for cleaved PARP (apoptosis marker) in H358 cells; assay type: cell-based; conditions: 72 h, range of concentrations
H358 cells [1] = assay: Cell growth / drug combination analysis (alamar blue, Calcusyn); assay type: cell-based; conditions: Homo sapiens, NCI-H358
phospho-Tyr1068 EGFR = conditions: H358 cells, 72 h, western blot
cyclin D1 [2] = assay: Western blot of H358 cell lysates; assay type: cell-based; conditions: H358 cells, 72 h
EGFR = conditions: H358 cells, 72 h, western blot
phospho-ERK = assay: Western blot of H358 cell lysates; assay type: cell-based; conditions: H358 cells, 72 h
A549 cells = assay: Cell growth (alamar blue); assay type: cell-based; conditions: Homo sapiens
H292 xenograft = H292 xenograft model; assay type: in vivo, nude mice; conditions: seliciclib 50 mg bid, [1] 40 mg bid days 1-5 and 11-15; erlotinib 100 mg qd po, 50 mg from day 11
H292 cells = assay: Drug combination analysis (Alamar blue, Calcusyn); conditions: 72 hours
SkBr3 cells = assay: Cell growth / drug combination analysis (alamar blue, Calcusyn); assay type: cell-based; conditions: for Calcusyn combination value at 50% effective dose: in combination with Lapatinib
H358 xenograft = conditions: day 49, erlotinib 100 mg/kg po daily, 28 days; for mean tumour volume: seliciclib 50 mg/kg ip twice daily 5 days on/2 off
cyclin D1 [3] = assay: Western blot of SkBr3 cell lysates; assay type: cell-based; conditions: SkBr3 cells, 24 h
MCF7 cells = assay: Cell growth (alamar blue); assay type: cell-based
H358 cells [4] = assay: Flow cytometry of DNA content (propidium iodide); conditions: 1×IC50, 72 h
Experimental: (B) The DNA content of the cells was analysed by flow cytometry after propidium iodide staining. Sub-G1 cells are those that contain less DNA than normal diploid cells. Results are representative of two independent experiments.
H358 or H1650 cells were seeded in 10 cm plates at approximately 5×10^5 cells/plate and left to settle overnight. […] After 72 h treatment, cells were harvested by trypsinisation, washed twice in PBS and then fixed overnight in 70% (v/v) ethanol at −20° C. Cells were washed twice in PBS containing 1% (w/v) BSA, then incubated with 50 μg/ml propidium iodide and 50 μg/ml ribonuclease A for 20 min at room temperature. Cells were analysed for DNA content by flow cytometry using the CellQuest programme on a Becton Dickinson LSR flow cytometer.

HER2 = assay: Western blot of SkBr3 cell lysates; assay type: cell-based; conditions: SkBr3 cells, 24 h

Row | SMILES | effect on tumour growth (H292 xenograft) | Calcusyn combination value at 50% effective dose (H292 cells; in combination with AG1478) | Calcusyn combination value at 50% effective dose (H292 cells; in combination with Erlotinib) | Calcusyn combination value at 50% effective dose (H292 cells; in combination with Gefitinib) | Calcusyn combination value at 50% effective dose (H292 cells; in combination with Lapatinib) | further results
1 | COc1cc2ncnc(Nc3cccc(Cl)c3)c2cc1OC [AG1478, 4-(3-chloroanilino)-6,7-dimethoxyquinazoline] | – | – | – | – | – | IC50 (H460 cells): 10.4 µM; PARP cleavage (cleaved PARP): no increase in PARP cleavage; IC50 (H358 cells [1]): 4 µM; EGFR phosphorylation (phospho-Tyr1068 EGFR): dose-dependent decrease; cyclin D1 levels (cyclin D1 [2]): very little effect; level of the EGFR (EGFR): decreased the level of the EGFR in a dose-dependent manner; ERK phosphorylation (phospho-ERK): stimulated ERK phosphorylation at low concentrations; IC50 (A549 cells): 6.6 µM
2 | CC[C@@H](Nc1nc(NCc2cccnc2)c2ncn(C(C)C)c2n1)C(C)(C)O [[1], (3R)-3-{9-isopropyl-6-[(pyridin-3-ylmethyl)-amino]-9H-purin-2-ylamino}-2-methyl-pentan-2-ol] | minimal if any effect on tumour growth | 0.42 | 0.71 | 0.50 | 0.69 | –
3 | CC[C@H](Nc1nc(NCc2cccnc2)c2ncn(C(C)C)c2n1)C(C)(C)O [[2], (3S)-3-{9-isopropyl-6-[(pyridin-3-ylmethyl)-amino]-9H-purin-2-ylamino}-2-methyl-pentan-2-ol] | – | 0.26 | 0.62 | 0.54 | 0.79 | –
4 | CC[C@H](Nc1nc(NCc2cccnc2)c2ncn(C(C)C)c2n1)[C@@H](C)O [[3], (2R3S)-3-{9-isopropyl-6-[(pyridine-3-ylmethyl)-amino]-9H-purin-2-ylamino}-pentan-2-ol] | – | 0.31 | 0.68 | 0.49 | 0.76 | –
5 | CC[C@H](Nc1nc(NCc2cnc(C)cc2C)c2ncn(C(C)C)c2n1)[C@@H](C)O [[4]] | – | 0.36 | 0.87 | 0.55 | 0.59 | Calcusyn combination value at 50% effective dose (SkBr3 cells): 0.67
6 | C#Cc1cccc(Nc2ncnc3cc(OCCOC)c(OCCOC)cc23)c1 [erlotinib] | moderately effective | – | – | – | – | mean tumour volume (H358 xenograft): 444 mm^3; tumour growth inhibition (H358 xenograft; seliciclib 50 mg/kg ip twice daily): 44%
7 | CC[C@H](CO)Nc1nc(NCc2ccccc2)c2ncn(C(C)C)c2n1 [seliciclib, 2-(1-R-hydroxymethylpropylamino)-6-benzylamino-9-isopropylpurine] | minimal if any effect on tumour growth | 0.38 | 0.68 | 0.53 | 0.57 | mean tumour volume (H358 xenograft): 717 mm^3; PARP cleavage (cleaved PARP): dose-dependent increase in cleaved PARP; EGFR phosphorylation (phospho-Tyr1068 EGFR): limited effect; cyclin D1 levels (cyclin D1 [2]): modest decrease; IC70 (growth inhibition) (SkBr3 cells): 20.4 µM; Calcusyn combination value at 50% effective dose (SkBr3 cells): 0.72; cyclin D1 levels (cyclin D1 [3]): significantly decreased cyclin D1 levels in a dose-dependent manner; level of the EGFR (EGFR): decreased the level of the EGFR in a dose-dependent manner; IC70 (growth inhibition) (MCF7 cells): 15.4 µM; G2/M phase cells (H358 cells [4]): characteristic increase in G2/M phase cells; ERK phosphorylation (phospho-ERK): no significant effect; HER2 levels (HER2): decreased HER2 levels in a dose-dependent manner
